We go through 34 compounds from patent publication US10494332B2, “Protein tyrosine phosphatases or SHP2 inhibitors and uses thereof” (Indiana University Research and Technology Corporation, priority 2015, dated 2019).

Like-named read-outs stand apart in the source and are kept apart here.

Common to all, as to type: biochemical
In assay [1] the target is T1, SHP2 (Homo sapiens, UniProt Q06124).
T1 sequence (Q06124 224-528): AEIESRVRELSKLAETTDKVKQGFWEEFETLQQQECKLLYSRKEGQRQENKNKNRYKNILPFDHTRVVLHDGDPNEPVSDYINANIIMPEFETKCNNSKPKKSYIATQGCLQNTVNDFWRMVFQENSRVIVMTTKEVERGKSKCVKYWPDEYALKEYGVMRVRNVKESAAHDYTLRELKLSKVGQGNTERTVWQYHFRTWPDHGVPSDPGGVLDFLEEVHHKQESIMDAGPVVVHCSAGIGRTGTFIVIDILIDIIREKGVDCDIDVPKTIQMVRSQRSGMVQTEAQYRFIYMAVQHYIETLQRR
In words: SHP2 phosphatase inhibition assay (pNPP). The note with it: for IC50: read-out: IC50 SHP2.

The target of assay [2] is T2, LMWPTP (Homo sapiens, UniProt P24666).
T2 sequence (P24666 1-158): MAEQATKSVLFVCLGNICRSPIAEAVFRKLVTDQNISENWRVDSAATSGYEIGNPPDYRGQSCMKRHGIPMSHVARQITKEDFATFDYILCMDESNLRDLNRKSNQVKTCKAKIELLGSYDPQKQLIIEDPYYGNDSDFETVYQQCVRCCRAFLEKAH
In words: PTP inhibition assay (pNPP).

The target of assay [3] is T3, LYP (Homo sapiens, UniProt Q9Y2R2).
T3 sequence (Q9Y2R2 1-807): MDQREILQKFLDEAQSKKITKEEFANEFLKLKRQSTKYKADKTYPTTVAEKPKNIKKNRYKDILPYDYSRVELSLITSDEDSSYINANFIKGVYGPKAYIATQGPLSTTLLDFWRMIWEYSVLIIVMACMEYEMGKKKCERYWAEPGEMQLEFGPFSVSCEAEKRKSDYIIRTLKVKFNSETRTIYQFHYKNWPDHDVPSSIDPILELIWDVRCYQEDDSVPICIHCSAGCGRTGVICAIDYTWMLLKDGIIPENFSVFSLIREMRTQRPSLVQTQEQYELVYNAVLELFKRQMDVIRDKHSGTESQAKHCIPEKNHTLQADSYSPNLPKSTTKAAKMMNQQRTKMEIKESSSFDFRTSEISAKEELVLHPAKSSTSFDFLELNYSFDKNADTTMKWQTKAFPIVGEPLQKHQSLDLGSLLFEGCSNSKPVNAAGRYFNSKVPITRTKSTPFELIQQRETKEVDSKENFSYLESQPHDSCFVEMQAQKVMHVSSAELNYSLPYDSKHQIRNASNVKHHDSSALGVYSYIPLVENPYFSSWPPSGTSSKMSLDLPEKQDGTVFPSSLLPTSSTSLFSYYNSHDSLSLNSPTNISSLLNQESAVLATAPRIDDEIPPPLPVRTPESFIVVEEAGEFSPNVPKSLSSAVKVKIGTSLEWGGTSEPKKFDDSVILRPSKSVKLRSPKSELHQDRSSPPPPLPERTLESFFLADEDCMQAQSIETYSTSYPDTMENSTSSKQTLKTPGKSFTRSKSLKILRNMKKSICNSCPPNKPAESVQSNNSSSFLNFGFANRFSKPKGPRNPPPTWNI
In words: PTP inhibition assay (pNPP). The following applies: […]; LYP.

Assay [4] concerns the target T4, HePTP (Homo sapiens, UniProt P35236).
T4 sequence (P35236 1-360): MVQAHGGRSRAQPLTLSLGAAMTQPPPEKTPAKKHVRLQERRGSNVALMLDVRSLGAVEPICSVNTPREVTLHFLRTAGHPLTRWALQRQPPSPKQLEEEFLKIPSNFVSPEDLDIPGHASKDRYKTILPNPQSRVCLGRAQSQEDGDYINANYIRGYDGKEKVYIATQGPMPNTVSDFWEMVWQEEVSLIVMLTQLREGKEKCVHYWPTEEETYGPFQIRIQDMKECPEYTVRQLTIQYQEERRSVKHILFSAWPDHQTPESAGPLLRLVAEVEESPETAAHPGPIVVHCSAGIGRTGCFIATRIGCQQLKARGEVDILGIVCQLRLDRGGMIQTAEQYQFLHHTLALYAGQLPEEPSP
In words: PTP inhibition assay (pNPP). The following applies: […]; HePTP.

The mark [5] stands for this setting: Example 9: SHP2 catalytic domain 20 nM, pNPP 3 mM, pH 7.0, 25° C.

The term IC50 denotes the concentration at which inhibition is half-maximal.

Turning to `O=C(Nc1ccc(NC(=O)C(c2ccccc2)S(=O)(=O)O)cc1)c1ccc(-c2ccc(Cl)cc2Cl)o1` (stereo not shown) [Compound L319-04-B34], in assay [1] (pNPP at Km, pH 7.0, 25° C.), the IC50 was 7.9 µM.
On to `O=C(Nc1ccc(N2CCOCC2)cc1)C(c1ccccc1F)S(=O)(=O)O` (stereo not shown) [Compound L319-06-M68], for which the concentration for half-maximal inhibition (IC50) in assay [2] ([…], LMWPTP) was more than 100 µM; in assay [3], more than 100 µM; in assay [1] ([…], SHP2), more than 100 µM; in assay [4], 22 µM.
For the compound `O=C(Nc1ccc(N2CCOCC2)cc1)C(c1ccccc1Cl)S(=O)(=O)O` (stereo not shown) [Compound L319-07-M68], the 50% inhibitory concentration (IC50) was more than 100 µM in assay [2] ([…], LMWPTP); more than 100 µM in assay [3]; more than 100 µM in assay [1] ([…], SHP2); 11 µM in assay [4].
Consider `O=C(NNc1ccccc1)C(c1ccc([N+](=O)[O-])cc1)S(=O)(=O)O` (stereo not shown) [Compound L319-08-N58], for which the IC50 was 11 µM in assay [2] ([…], LMWPTP); 9.9 µM in assay [3]; 7.28 µM in assay [1] ([…], SHP2); 16 µM in assay [4].
Consider `Cc1ccc(C(C(=O)Nc2ccc(N3CCOCC3)cc2)S(=O)(=O)O)cc1` (stereo not shown) [Compound L319-11-M68], for which the IC50 in assay [2] ([…], LMWPTP) is more than 100 µM; in assay [3], 7.6 µM; in assay [1] ([…], SHP2), more than 100 µM; in assay [4] it was 3.2 µM.
Turning to `O=C(Nc1ccc(N2CCOCC2)cc1)C(c1ccc(Br)cc1)S(=O)(=O)O` (stereo not shown) [Compound L319-12-M68], the IC50 in assay [2] ([…], LMWPTP) was 21 µM; in assay [3], 7.43 µM; in assay [1] ([…], SHP2) it was more than 100 µM; in assay [4], 3.9 µM.
The like results for `O=C(Nc1ccc(N2CCOCC2)cc1)C(c1cccc(F)c1)S(=O)(=O)O` (stereo not shown) [Compound L319-13-M68] were, in that order, 27 µM, 10 µM, more than 100 µM and 4.3 µM.
The like results for `O=C(Nc1ccc(OCc2ccccc2)c(Cl)c1)C(c1ccc2ccccc2c1)S(=O)(=O)O` (stereo not shown) [Compound L319-14-M50] were, in that order, 28.8 µM, 23 µM, 24 µM and 25 µM.
The like results for `O=C(Nc1ccc(N2CCOCC2)cc1)C(c1ccc2ccccc2c1)S(=O)(=O)O` (stereo not shown) [Compound L319-14-M68] were, in that order, more than 100 µM, 8.3 µM, more than 100 µM and 4.5 µM.
Consider `CC(C)CCNC(=O)C(c1ccc2ccccc2c1)S(=O)(=O)O` (stereo not shown) [Compound L319-14-N03], for which the IC50 in assay [2] ([…], LMWPTP) was more than 100 µM; in assay [3], 11.6 µM; in assay [1] ([…], SHP2), 74 µM; in assay [4], 24 µM.
The like results for `O=C(Nc1ccc(Br)c2ccccc12)C(c1ccc(-c2ccccc2)cc1)S(=O)(=O)O` (stereo not shown) [Compound L319-16-M47] were, in that order, 37 µM, 22 µM, 24 µM and 21 µM.
The like results for `O=C(Nc1nc2cc(Cl)ccc2o1)C(c1ccc(-c2ccccc2)cc1)S(=O)(=O)O` (stereo not shown) [Compound L319-16-M60] were, in that order, 18 µM, 15 µM, 12 µM and 13 µM.
For the compound `O=C(C(c1ccc(-c2ccccc2)cc1)S(=O)(=O)O)N1CCc2cc(Br)ccc21` (stereo not shown) [Compound L319-16-M93], the IC50 in assay [2] ([…], LMWPTP) was 24 µM; in assay [3] it was 16 µM; in assay [1] ([…], SHP2), 16 µM; in assay [4] it was 7.6 µM.
On to `O=C(NNc1ccccc1[N+](=O)[O-])C(c1ccc(-c2ccccc2)cc1)S(=O)(=O)O` (stereo not shown) [Compound L319-16-N55], for which the IC50 was 90 µM in assay [2] ([…], LMWPTP); 35 µM in assay [3]; 82 µM in assay [1] ([…], SHP2); 43 µM in assay [4].
As to `O=C(Nc1ccc(I)cc1)C(=O)Nc1ccc(NC(=O)C(c2ccccc2)S(=O)(=O)O)cc1` (stereo not shown) [Compound L319-20-M24], the IC50 in assay [1] (pNPP at Km, pH 7.0, 25° C.) was 1.5 µM.
On the same count and under the same terms, then `O=C(Nc1ccc(NC(=O)C(c2ccccc2)S(=O)(=O)O)cc1)C(=O)Nc1ccc(-c2cccs2)cc1` (stereo not shown) [Compound L319-20-M74], with 0.9 µM; and `O=C(NC1=NN=C(c2ccc(Br)cc2)C1)C(=O)Nc1ccc(NC(=O)C(c2ccccc2)S(=O)(=O)O)cc1` (stereo not shown) [Compound L319-20-M78], with 0.7 µM.
With `O=C(Nc1ccc(NC(=O)C(c2ccccc2)S(=O)(=O)O)cc1)C(=O)Nc1ccc(-c2ccccc2)cc1` (stereo not shown) [Compound L319-20-N08], in assay [1] (pNPP at Km, pH 7.0, 25° C.), the IC50 turned out to be 1.4 µM.
The same measure, in the same setting: then `CC(C)c1ccc(NC(=O)C(=O)Nc2ccc(NC(=O)C(c3ccccc3)S(=O)(=O)O)cc2)cc1` (stereo not shown) [Compound L319-20-N25], with 2.3 µM; and `Cc1c(Br)cc(NC(=O)C(=O)Nc2cccc(NC(=O)C(c3ccccc3)S(=O)(=O)O)c2)cc1Br` (stereo not shown) [Compound L319-22-M34], with 5.7 µM; and `O=C(Nc1cccc(NC(=O)C(c2ccccc2)S(=O)(=O)O)c1)C(=O)Nc1ccc(OCc2ccccc2)c(Cl)c1` (stereo not shown) [Compound L319-22-M50], with 7.5 µM.
Still for that read-out and setting: then `O=C(Nc1cccc(Cc2ccccc2)c1)C(=O)Nc1cccc(NC(=O)C(c2ccccc2)S(=O)(=O)O)c1` (stereo not shown) [Compound L319-22-M51], with 10 µM; and `O=C(NCc1ccc(NC(=O)C(c2ccccc2)S(=O)(=O)O)cc1)C(=O)Nc1ccc(-c2cccs2)cc1` (stereo not shown) [Compound L319-23-M74], with 3.5 µM; and `O=C(Nc1ccc(CNC(=O)C(c2ccccc2)S(=O)(=O)O)cc1)C(=O)Nc1ccc(-c2cccs2)cc1` (stereo not shown) [Compound L319-24-M74], with 1.34 µM.
Consider `O=C(Nc1ccc(CNC(=O)C(c2ccccc2)S(=O)(=O)O)cc1)C(=O)Nc1ccccc1-c1nc2ccccc2[nH]1` (stereo not shown) [Compound L319-24-M77], for which the IC50 in assay [1] (pNPP at Km, pH 7.0, 25° C.) came to 1.1 µM.
For the compound `O=C(Nc1nc2ccccc2s1)C(Br)(c1ccccc1)S(=O)(=O)O` (stereo not shown) [Compound L319-Br1-N15], the IC50 in assay [1] ([…], SHP2) was 13.2 µM; in assay [4], 0.2 µM.
The like results for `O=C(N1CCC(c2ccc(Cl)c(Cl)c2)CC1)C(Br)(c1ccccc1)S(=O)(=O)O` (stereo not shown) [Compound L319-Br1-N47] were, in that order, 22.8 µM and 26 µM.
The like results for `COc1ccc(CNC(=O)C(Br)(c2ccccc2)S(=O)(=O)O)c(OC)c1` (stereo not shown) [Compound L319-Br1-N76] were, in that order, 9.9 µM and 21.7 µM.
Compound `O=C(CP(=O)(O)O)Nc1nc2ccccc2s1` [Compound L338N15] came in with an IC50 in assay [2] (pNPP at Km, pH 7.0, 25° C.) of 30 µM.
Take `O=C(O)C(=O)Nc1ccc(NC(=O)C(c2ccccc2)S(=O)(=O)O)cc1` (stereo not shown) [Lib-1, 2-oxo-2-((4-(2-phenyl-2-sulfoacetamido)phenyl)amino)acetic acid]: in assay [1] (setting [5]), the IC50 was more than 50 µM.
Still for that read-out and setting: then `O=C(O)C(=O)Nc1cccc(NC(=O)C(c2ccccc2)S(=O)(=O)O)c1` (stereo not shown) [Lib-2, 2-oxo-2-((3-(2-phenyl-2-sulfoacetamido)phenyl)amino)acetic acid], with more than 50 µM.
Same read-out and setting: the value for `O=C(O)C(=O)NCc1ccc(NC(=O)C(c2ccccc2)S(=O)(=O)O)cc1` (stereo not shown) [Lib-3, 2-oxo-2-((4-(2-phenyl-2-sulfoacetamido)benzyl)amino)acetic acid] was more than 50 µM; that for `O=C(O)C(=O)Nc1ccc(CNC(=O)C(c2ccccc2)S(=O)(=O)O)cc1` (stereo not shown) [Lib-4, 2-oxo-2-((4-((2-phenyl-2-sulfoacetamido)methyl)phenyl)amino)acetic acid] was more than 50 µM.
As to `CC1(C)S[C@@H]2[C@H](NC(=O)C(c3ccccc3)S(=O)(=O)O)C(=O)N2[C@H]1C(=O)O` (stereo partly shown) [sulbenicillin, reference compound], in assay [1] (200 μM compound concentration), the “Inhibition of SHP2 at 200 μM” value is on record as “no activity”.
